# Results reported in patent US11649222B2, “Compounds” (UNIVERSITETET I OSLO, priority 2016, dated 2023).
# Where “and” joins values, the source holds several entries; their conditions need not be identical. Equal values may be shown once.
# Tests used:
# [1] = tested on: C. freundii (NDM); assay: Microbroth dilution MIC of meropenem ± 25 mg/L inhibitor; type: cell-based
# Method: (§1) • Plate bacterial strain(s) on appropriate media: • Gram-negative bacteria with ESBLs or carbapenemases: green agar plates with 100 mg/L ampicillin • Gram-negative bacteria without β-lactamases: green agar plates • Gram-positive bacteria (Staphylococci and Enterococci): blood agar plates • Incubate o.n. at 37° C. Day 2: Prepare the Bacterial Inoculum: • Prepare a 0.5 McFarland suspension of bacteria in 0.85% NaCl. (Should be used within 15 min of preparation). • Dilute the 0.5 McFarland suspension 1:100 into MH broth. Check the inoculum by diluting the prepared bacterial suspension 1:100 (10 μl bacterial suspension+990 μl 0.85% NaCl). Plate 10 μl of the dilution on MH agar plates (×2). Incubate o.n. at 37° C., count the colonies and calculate the final CFU/ml inoculum in the plate by multiplying the average number of colonies with 10000 and divide by 2. The final inoculum should be between 3-7×10^5 CFU/ml. • Add 50 μl of the prepared bacterial suspension to each well in the microtiter plate except negative growth control. Preparation of Compounds/Antibiotics • Calculate the desired concentration-range and volume of the compounds/antibiotics in the assay. […] Dilute the stock solution in MH broth. Make subsequent 2-fold dilutions in MH broth of the desired concentrations if a concentration range is to be tested (remember the extra dilution factor in the assay plate). Always include extra volume for pipetting. Take into consideration stock solutions that are made in buffers that have an effect on bacterial growth (e.g. DMSO).
# [2] = tested on: C. freundii (NDM-1); assay: as above; type: cell-based
# Method: as §1
# [3] = tested on: E. cloacae (VIM); assay: as above; type: cell-based
# Method: as §1
# [4] = tested on: E. coli (VIM-1); assay: as above; type: cell-based
# Method: as §1
# [5] = tested on: K. pneumoniae (NDM-1); assay: as above; type: cell-based; details: K. pneumoniae NDM-1 (several strains)
# Method: as §1
# [6] = tested on: K. pneumoniae (NDM-7); assay: as above; type: cell-based
# Method: as §1
# [7] = tested on: K. pneumoniae (VIM); assay: as above; type: cell-based
# Method: as §1
# [8] = tested on: M. morganii (OXA48+ NDM-1); assay: as above; type: cell-based
# Method: as §1
# [9] = tested on: P. mirabilis (NDM-1); assay: as above; type: cell-based
# Method: as §1
# [10] = tested on: P. stuartii (NDM); assay: as above; type: cell-based
# Method: as §1
# [11] = tested on: P. stuartii (NDM-1); assay: as above; type: cell-based
# Method: as §1
# [12] = tested on: E. coli 50739822 (NDM-1); assay: Checkerboard MIC, Example 26 and meropenem; type: cell-based
# Method: (§2) A checkerboard MIC assay was using the broth dilution method according to CLSI guidelines. […] Dilutions to 4 mg/ml was performed by adding+4.75 ml sterile saline to 0.25 ml of the stock solution, and dilutions to 512 μg/ml was performed by adding 10.9 ml MH-broth to the 4 mg/ml solution. Inoculums of bacterial strains as described in Table 4 were prepared by suspending fresh overnight colonies from 5% horse blood agar were to a turbidity of 0.5 McFarland and further diluted to 1×10^6 CFU/ml in MH-broth. Aliquots of 50 μl of MH-broth were added to each well of polystyrene microtiter plates. […] The plates were incubated at 35° C., 16-20 hours.
# [13] = tested on: E. coli 50921466 (VIM-1); assay: Checkerboard MIC, Example 26 and meropenem; type: cell-based
# Method: as §2
# [14] = tested on: E. coli AMA323 (VIM-4); assay: Checkerboard MIC, Example 26 and meropenem; type: cell-based
# Method: as §2
# [15] = tested on: K. pneumonia 50752501 (NDM-1); assay: Checkerboard MIC, Example 26 and meropenem; type: cell-based
# Method: as §2
# [16] = tested on: K. pneumonia 50825040 (NDM-1); assay: Checkerboard MIC, Example 26 and meropenem; type: cell-based
# Method: as §2
# [17] = tested on: K. pneumonia K45-67 (VIM-1); assay: Checkerboard MIC, Example 26 and meropenem; type: cell-based
# Method: as §2
# [18] = tested on: Klebsiella pneumoniae strain 50752501 harbouring NDM-1; assay: In vivo peritonitis infection study in neutropenic mice; parameters: Score at sampling: scale not given here; details: for Blood log CFU/ml mean / Blood log CFU/ml / Score at sampling / Pf log CFU/ml mean / Pf log CFU/ml: sampling T = 5; for Blood log CFU/ml / Score at sampling / Pf log CFU/ml: individual mice; for Pf log CFU/ml mean / Pf log CFU/ml: peritoneal fluid
# Method: The purpose of this study was to investigate the synergy between a typical example of the present invention and a state of art carbapenem in a clinically relevant multiresistant Gram-negative bacterial strain harboring a metallo-β-lactamase in the treatment of live mice infected with the bacterial strain.
# The mice were rendered neutropenic by injecting 0.5 ml cyclophosphamide solution intraperitoneally 4 days (approximately 200 mg/kg) and 1 day (approximately 100 mg/kg) prior to inoculation.
# Fresh overnight colonies from a 5% Horse Blood Agar plate were suspended and diluted in sterile saline to approximately and 10^7 CFU/ml. Mice were inoculated intraperitoneally with 0.5 ml of the suspension. Approximately ½ hr prior to inoculation, mice were treated orally with 45 μl neurophen (20 mg ibuprofen/ml corresponding to approximately 30 mg/kg) as a pain relief.
# Mice were treated subcutaneously in the neck region with.
# Colony counts were determined from blood and peritoneal fluid at 1 and 5 hrs post inoculation. […] The mice were sacrificed immediately after blood sampling and a total of 2 ml sterile saline was injected i.p. and the abdomen gently massaged before it was opened and fluid sampled with a pipette. Each sample was then 10 fold serial diluted in saline and 20-μl spots, ranging from undiluted to a 10^6 dilution, were applied on agar plates in duplicates. […] All agar plates were incubated 18-22 hrs at 35° C. in ambient air.
# [19] = Escherichia coli, read-out: MIC alone, Example 26
# [20] = Klebsiella pneumoniae, read-out: MIC alone, Example 26
# [21] = Example 26 10 mg/kg s.c. + meropenem 33 mg/kg
# [22] = Example 26 10 mg/kg s.c. + vehicle
# [23] = Example 26 10 mg/kg s.c. + vehicle, 10 mg/kg
# [24] = Example 26 33 mg/kg s.c. + meropenem 33 mg/kg
# [25] = Example 26 33 mg/kg s.c. + vehicle
# [26] = Example 26 33 mg/kg s.c. + vehicle, 33 mg/kg
# [27] = Example 26 100 mg/kg s.c. + meropenem 33 mg/kg
# [28] = Example 26 100 mg/kg s.c. + vehicle
# [29] = Example 26 100 mg/kg s.c. + vehicle, 100 mg/kg
# [30] = combination treatment with Example 26 and meropenem
compound,measurement,setting,value
"CN(C[C@H](O)[C@@H](O)[C@H](O)[C@H](O)CO)C(=O)c1ccc(CN(Cc2ccccn2)Cc2ccccn2)nc1 [Example 26, 6-((bis(pyridin-2-ylmethyl)amino)methyl)-N-methyl-N-((2S,3R,4R,5R)-2,3,4,5,6-pentahydroxyhexyl)nicotinamide]",MIC meropenem + 25 mg/L Example 26,[1],0.06 µg/mL
same,MIC meropenem + 25 mg/L Example 26,[2],0.06 µg/mL
same,MIC meropenem + 25 mg/L Example 26,[3],<0.03 µg/mL
same,MIC meropenem + 25 mg/L Example 26,[4],<0.03 µg/mL
same,MIC meropenem + 25 mg/L Example 26,[5],0.125 µg/mL
same,MIC meropenem + 25 mg/L Example 26,[6],<0.03 µg/mL
same,MIC meropenem + 25 mg/L Example 26,[7],0.06 µg/mL
same,MIC meropenem + 25 mg/L Example 26,[8],1 µg/mL
same,MIC meropenem + 25 mg/L Example 26,[9],0.125 µg/mL
same,MIC meropenem + 25 mg/L Example 26,[10],0.25 µg/mL
same,MIC meropenem + 25 mg/L Example 26,[11],0.06 µg/mL
same,MIC,[12]; [19],> 400 µg/mL
same,"MIC in combination, Example 26",[12]; with meropenem,12.5 µg/mL
same,MIC,[13]; [19],> 400 µg/mL
same,"MIC in combination, Example 26",[13]; with meropenem,12.5 µg/mL
same,MIC,[14]; [19],> 400 µg/mL
same,"MIC in combination, Example 26",[14]; with meropenem,12.5 µg/mL
same,MIC,[15]; [20],> 400 µg/mL
same,"MIC in combination, Example 26",[15]; with meropenem,25 µg/mL
same,MIC,[16]; [20],> 400 µg/mL
same,"MIC in combination, Example 26",[16]; with meropenem,12.5 µg/mL
same,MIC,[17]; [20],> 400 µg/mL
same,"MIC in combination, Example 26",[17]; with meropenem,12.5 µg/mL
same,reduction of the CFU levels compared to vehicle treatment in blood and peritoneal fluid,[18]; 10-100 mg/kg Example 26 alone,did not result in reduction of the CFU levels
same,Blood log CFU/ml mean,[18]; [21],1.61 log CFU/ml
same,Blood log CFU/ml,[18]; [21],1.90 log CFU/ml and 1.00 log CFU/ml and 1.85 log CFU/ml and 1.70 log CFU/ml
same,Score at sampling,[18]; [21],2
same,Blood log CFU/ml mean,[18]; [22],5.88 log CFU/ml
same,Score at sampling,[18]; [22],2
same,Blood log CFU/ml,[18]; [23],6.02 log CFU/ml and 5.70 log CFU/ml and 5.90 log CFU/ml and 5.89 log CFU/ml
same,Blood log CFU/ml mean,[18]; [24],1.26 log CFU/ml
same,Blood log CFU/ml,[18]; [24],1.78 log CFU/ml (2×) and 1.00 log CFU/ml and 0.50 log CFU/ml
same,Score at sampling,[18]; [24],1
same,Blood log CFU/ml mean,[18]; [25],5.89 log CFU/ml
same,Score at sampling,[18]; [25],1
same,Blood log CFU/ml,[18]; [26],5.83 log CFU/ml and 5.54 log CFU/ml and 6.78 log CFU/ml and 5.40 log CFU/ml
same,Blood log CFU/ml mean,[18]; [27],1.18 log CFU/ml
same,Blood log CFU/ml,[18]; [27],1.30 log CFU/ml and 0.50 log CFU/ml and 1.90 log CFU/ml and 1.00 log CFU/ml
same,Score at sampling,[18]; [27],1
same,Blood log CFU/ml mean,[18]; [28],5.84 log CFU/ml
same,Score at sampling,[18]; [28],1
same,Blood log CFU/ml,[18]; [29],5.83 log CFU/ml and 6.05 log CFU/ml and 5.48 log CFU/ml and 6.02 log CFU/ml
same,"lower CFU levels compared to vehicle treatment, blood",[18]; [30],3.95-4.38 log10
same,"lower CFU levels compared to vehicle treatment, peritoneal fluid",[18]; [30],3.57-3.66 log10
same,Pf log CFU/ml mean,[18]; [21],3.83 log CFU/ml
same,Pf log CFU/ml,[18]; [21],4.18 log CFU/ml and 3.83 log CFU/ml and 3.60 log CFU/ml and 3.72 log CFU/ml
same,Pf log CFU/ml mean,[18]; [22],7.79 log CFU/ml
same,Pf log CFU/ml,[18]; [23],7.92 log CFU/ml and 7.68 log CFU/ml and 7.76 log CFU/ml and 7.81 log CFU/ml
same,Pf log CFU/ml mean,[18]; [24],3.80 log CFU/ml
same,Pf log CFU/ml,[18]; [24],3.88 log CFU/ml and 3.80 log CFU/ml and 3.68 log CFU/ml and 3.85 log CFU/ml
same,Pf log CFU/ml mean,[18]; [25],7.60 log CFU/ml
same,Pf log CFU/ml,[18]; [26],7.68 log CFU/ml and 7.51 log CFU/ml and 7.88 log CFU/ml and 7.35 log CFU/ml
same,Pf log CFU/ml mean,[18]; [27],3.74 log CFU/ml
same,Pf log CFU/ml,[18]; [27],3.65 log CFU/ml (2×) and 3.74 log CFU/ml and 3.92 log CFU/ml
same,Pf log CFU/ml mean,[18]; [28],7.93 log CFU/ml
same,Pf log CFU/ml,[18]; [29],8.24 log CFU/ml and 7.89 log CFU/ml and 7.63 log CFU/ml and 7.98 log CFU/ml
